The values that follow are results of earlier work, collected in US9617305B2 (priority 2011, dated 2017).

Where a SMILES comes first, the peptide text is derived from it. Bridges are numbered along the chain shown (N, C = ends).

For this series the following is noted: after oral administration at therapeutic dose levels.

For `C[C@@H]1NC(=O)[C@@H]2CCCN2C(=O)[C@H](CC(N)=O)NC(=O)[C@@H]2CSSC[C@H](N)C(=O)N[C@H]3CSSC[C@H](NC1=O)C(=O)N[C@@H]([C@@H](C)O)C(=O)NCC(=O)N[C@H](C(=O)N[C@@H](Cc1ccc(O)cc1)C(=O)O)CSSC[C@H](NC(=O)[C@H](Cc1ccc(O)cc1)NC(=O)[C@H](CCC(=O)O)NC3=O)C(=O)N2` [linaclotide, Linaclotide] (H-CCEYCCNPACTGCY-OH; disulfide 1-6, 2-10, 5-13), the “levels of linaclotide seen systemically” value is “no detectable levels”.
